Measured values reported in ChEMBL document CHEMBL1201862, “PubChem BioAssay data set” (2004).
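Grown in 96-well plates, cells were treated for 48 hours with each compound at five concentrations. Insufficient inhibition: endpoint recorded as highest concentration tested. At the GI50, growth is halved.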 The source made the active and inactive calls. Rule as the data show it: active = GI50 up to about 1.1 µM and inactive = higher.

What was measured:
Assay in all cases: NCI anticancer screen, dose series, 48 h
SN12C = tested on: SN12C
MDA-MB-231 = tested on: MDA-MB-231
Hs-578T = tested on: Hs-578T
NCI-H23 = tested on: NCI-H23
M14 = tested on: M14
A549 = tested on: A549
U-251 = tested on: U-251
BT-549 = tested on: BT-549
SK-MEL-28 = tested on: SK-MEL-28
MCF7 = tested on: MCF7
SF-539 = tested on: SF-539
UACC-257 = tested on: UACC-257
CAKI-1 = tested on: CAKI-1
ACHN = tested on: ACHN
NCI/ADR-RES = tested on: NCI/ADR-RES
HL-60 = tested on: HL-60
RXF 393 = tested on: RXF 393
SF-268 = tested on: SF-268
SW-620 = tested on: SW-620
SNB-75 = tested on: SNB-75

Measured: GI50

O=c1[nH]cc(/N=C/c2cc(Cl)ccc2O)c(=O)[nH]1
inactive: SN12C 9.04 µM | MDA-MB-231 19.6 µM | Hs-578T 47.2 µM | NCI-H23 19 µM | M14 13.8 µM | A549 > 100 µM | U-251 8.05 µM | BT-549 4.84 µM | SK-MEL-28 13.6 µM | MCF7 17.7 µM | SF-539 1.89 µM | UACC-257 58.7 µM | CAKI-1 30.3 µM | ACHN 13.7 µM | NCI/ADR-RES 13.1 µM | HL-60 4.71 µM | RXF 393 81.7 µM | SF-268 5.62 µM

CNC(c1ccncc1)C(NC)c1ccncc1 (centres undefined)
inactive: SN12C > 100 µM | MDA-MB-231 > 100 µM | Hs-578T 90.8 µM | NCI-H23 > 100 µM | SW-620 > 100 µM | M14 > 100 µM | A549 > 100 µM | U-251 > 100 µM | BT-549 > 100 µM | SK-MEL-28 > 100 µM | SNB-75 > 100 µM | MCF7 > 100 µM | UACC-257 > 100 µM | CAKI-1 > 100 µM | ACHN > 100 µM | NCI/ADR-RES > 100 µM | HL-60 > 100 µM | RXF 393 > 100 µM | SF-268 > 100 µM

N#CCN(CC#N)C1CC=CCC1N(CC#N)CC#N (centres undefined)
inactive: SN12C > 100 µM | MDA-MB-231 > 100 µM | Hs-578T > 100 µM | NCI-H23 > 100 µM | SW-620 > 100 µM | M14 > 100 µM | A549 > 100 µM | U-251 > 100 µM | BT-549 > 100 µM | MCF7 > 100 µM | SF-539 > 100 µM | UACC-257 > 100 µM | CAKI-1 > 100 µM | ACHN > 100 µM | NCI/ADR-RES > 100 µM | HL-60 > 100 µM | RXF 393 > 100 µM | SF-268 > 100 µM

N#Cc1c(-c2ccc([N+](=O)[O-])cc2)c2c([nH]c1=O)-c1ccccc1CCC2
inactive: SN12C > 100 µM | MDA-MB-231 > 100 µM | Hs-578T 75 µM | NCI-H23 > 100 µM | SW-620 63.5 µM | M14 > 100 µM | A549 42.8 µM | U-251 52.5 µM | BT-549 24.9 µM | SK-MEL-28 47.9 µM | MCF7 33.4 µM | SF-539 52.7 µM | UACC-257 80 µM | CAKI-1 > 100 µM | ACHN 37.5 µM | NCI/ADR-RES 50.5 µM | HL-60 43 µM | RXF 393 30.9 µM | SF-268 68.7 µM

CN(C)c1ccc(/C=C2\N=C(N/N=C/c3ccc(N(C)C)cc3)NC2=O)cc1
inactive: SN12C > 100 µM | MDA-MB-231 31.4 µM | Hs-578T > 100 µM | NCI-H23 > 100 µM | SW-620 > 100 µM | M14 88.7 µM | A549 92.5 µM | U-251 52.1 µM | BT-549 > 100 µM | SK-MEL-28 > 100 µM | SNB-75 > 100 µM | MCF7 71.9 µM | UACC-257 > 100 µM | CAKI-1 > 100 µM | ACHN > 100 µM | NCI/ADR-RES > 100 µM | HL-60 29.4 µM | RXF 393 7.6 µM | SF-268 80.4 µM

CC(=O)O[C@@H]1[C@@H](O)C2=C3[C@]4(C)[C@@H]1C(C)(C)C(=O)C[C@@H]4[C@]3(O)[C@H](OC(C)=O)[C@@]1(C[C@@H]1C)C2=O
inactive: SN12C 18.4 µM | MDA-MB-231 19.7 µM | Hs-578T 41.2 µM | NCI-H23 29.3 µM | SW-620 18.3 µM | M14 25.2 µM | A549 24.2 µM | U-251 16 µM | BT-549 16.1 µM | SK-MEL-28 16.3 µM | SNB-75 21.8 µM | MCF7 19 µM | SF-539 21.3 µM | UACC-257 13.9 µM | CAKI-1 15.5 µM | ACHN 18.9 µM | NCI/ADR-RES 23.4 µM | HL-60 13.6 µM | SF-268 25.1 µM

Cc1ccc(S(=O)(=O)C2=C([Si](C)(C)C)C3CC2[C@@H]2C4C=CC(CC4)[C@H]32)cc1 (some centres undefined)
inactive: SN12C > 100 µM | MDA-MB-231 26.5 µM | Hs-578T 39.1 µM | SW-620 > 100 µM | M14 > 100 µM | A549 > 100 µM | U-251 23.9 µM | BT-549 > 100 µM | SK-MEL-28 > 100 µM | MCF7 > 100 µM | SF-539 25.6 µM | UACC-257 > 100 µM | CAKI-1 82.6 µM | ACHN 99.5 µM | NCI/ADR-RES > 100 µM | HL-60 > 100 µM | RXF 393 33.5 µM | SF-268 38.1 µM

CCN(CC)Cc1nc2sc3c(c2c(=O)n1-c1ccccc1)CCCC3
inactive: SN12C 19.5 µM | MDA-MB-231 15.3 µM | Hs-578T 34.5 µM | NCI-H23 35.1 µM | SW-620 16.7 µM | M14 15.9 µM | A549 20.5 µM | U-251 16.9 µM | BT-549 28.3 µM | SK-MEL-28 35.4 µM | SNB-75 18.4 µM | MCF7 17.5 µM | UACC-257 21.2 µM | CAKI-1 19.7 µM | ACHN 20 µM | NCI/ADR-RES 24.8 µM | HL-60 23.3 µM | RXF 393 18.5 µM | SF-268 21.1 µM

O=C1C2CC=CCC2C(=O)N1n1c(Cc2ccc(Cl)cc2)n[nH]c1=O (centres undefined)
inactive: SN12C > 100 µM | MDA-MB-231 > 100 µM | Hs-578T > 100 µM | NCI-H23 > 100 µM | SW-620 > 100 µM | M14 > 100 µM | A549 > 100 µM | U-251 > 100 µM | BT-549 > 100 µM | SK-MEL-28 > 100 µM | SNB-75 > 100 µM | MCF7 > 100 µM | UACC-257 > 100 µM | CAKI-1 > 100 µM | ACHN > 100 µM | NCI/ADR-RES > 100 µM | HL-60 > 100 µM | RXF 393 > 100 µM | SF-268 > 100 µM

O=C(O)Cn1cc([N+](=O)[O-])c(=O)c2ccccc21
inactive: SN12C > 100 µM | MDA-MB-231 18.8 µM | Hs-578T > 100 µM | NCI-H23 > 100 µM | SW-620 > 100 µM | M14 > 100 µM | A549 > 100 µM | U-251 > 100 µM | BT-549 > 100 µM | SK-MEL-28 > 100 µM | SNB-75 > 100 µM | MCF7 > 100 µM | SF-539 > 100 µM | UACC-257 > 100 µM | CAKI-1 > 100 µM | ACHN > 100 µM | NCI/ADR-RES > 100 µM | HL-60 > 100 µM | SF-268 > 100 µM

Clc1ccc(C(c2ccc(Cl)cc2)c2cncnc2)cc1
inactive: SN12C 18.4 µM | MDA-MB-231 17.7 µM | Hs-578T 18.3 µM | NCI-H23 15.9 µM | M14 16.4 µM | A549 20.5 µM | U-251 17.3 µM | BT-549 13.9 µM | SK-MEL-28 18.5 µM | MCF7 15.3 µM | UACC-257 19.3 µM | CAKI-1 18.6 µM | ACHN 19.2 µM | NCI/ADR-RES 18.7 µM | HL-60 22.9 µM | RXF 393 12.6 µM | SF-268 17.8 µM
